The text below walks through data of patent US10000498B2, “Selective proton coupled folate transporter and folate receptor, and GARFTase inhibitor compounds and methods of using the same” (Duquesne University of the Holy Spirit, priority 2008, dated 2018).

Data set [1] relates to PC43-10 cells (hRFC-expressing Chinese hamster ovary). The data set is described as follows: Growth inhibition of hRFC-expressing PC43-10 CHO cells. The data set is classed as cell-based.
Data set [2] has as its system R2 CHO cells (hRFC- and FR-null). The experiment in a line: Growth inhibition of hRFC- and FR-null R2 CHO cells. The data set is classed as cell-based, Chinese hamster. To be noted: Cricetulus griseus, RPMI1640/10% dialyzed fetal bovine serum, mean of 2-3 experiments.
Data set [3] deals with RT16 cells (hFRα-expressing Chinese hamster ovary). The experiment in a line: Growth inhibition of FR-expressing RT16 CHO cells, with or without folic acid. The data set is classed as cell-based. As to conditions: for IC50: Cricetulus griseus, RT16.
In data set [4] the test system is KB human tumor cells (hRFC/FRα). The data set is described as follows: Growth inhibition of KB human tumor cells (Cell Titer-blue cytotoxicity screen), with or without folic acid. Type of data set: cell-based. (The colour change of resazurin is a common sign of viable cells or microbes.)
The target in data set [5] is T1, purified recombinant mouse GARFTase (Mus musculus, UniProt Q64737).
T1 sequence (Q64737 2-1010 limits assumed): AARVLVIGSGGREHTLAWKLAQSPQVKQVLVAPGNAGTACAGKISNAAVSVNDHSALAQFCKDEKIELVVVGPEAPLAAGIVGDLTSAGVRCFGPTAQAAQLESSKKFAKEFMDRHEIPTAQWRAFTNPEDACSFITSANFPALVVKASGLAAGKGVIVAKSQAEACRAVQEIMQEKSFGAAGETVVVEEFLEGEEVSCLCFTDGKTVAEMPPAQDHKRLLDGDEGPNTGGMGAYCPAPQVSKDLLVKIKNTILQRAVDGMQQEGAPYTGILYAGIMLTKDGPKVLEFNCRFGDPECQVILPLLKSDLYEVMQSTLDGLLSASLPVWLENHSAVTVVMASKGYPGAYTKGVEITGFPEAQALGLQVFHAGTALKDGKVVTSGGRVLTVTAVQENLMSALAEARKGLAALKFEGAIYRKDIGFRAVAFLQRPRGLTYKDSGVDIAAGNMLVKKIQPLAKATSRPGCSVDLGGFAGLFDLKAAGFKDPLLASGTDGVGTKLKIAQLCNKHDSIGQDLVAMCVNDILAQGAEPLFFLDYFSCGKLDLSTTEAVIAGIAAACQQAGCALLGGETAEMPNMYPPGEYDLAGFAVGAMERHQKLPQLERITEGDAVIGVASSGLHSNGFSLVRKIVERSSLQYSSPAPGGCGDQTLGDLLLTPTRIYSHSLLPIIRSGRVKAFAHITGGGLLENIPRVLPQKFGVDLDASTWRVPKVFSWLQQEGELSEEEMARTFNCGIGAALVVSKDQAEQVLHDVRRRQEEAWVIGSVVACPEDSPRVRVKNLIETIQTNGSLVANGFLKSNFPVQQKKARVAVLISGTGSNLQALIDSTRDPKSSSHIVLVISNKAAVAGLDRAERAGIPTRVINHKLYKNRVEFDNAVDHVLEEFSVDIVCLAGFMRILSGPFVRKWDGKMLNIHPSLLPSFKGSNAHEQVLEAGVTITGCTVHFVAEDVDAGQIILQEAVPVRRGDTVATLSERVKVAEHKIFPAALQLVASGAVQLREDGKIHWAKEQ
The experiment in a line: In vitro GARFTase inhibition assay. Type of data set: biochemical. To be noted: purified recombinant mouse GARFTase; mean IC50, SEM in parentheses.

The target in data set [6] is T2, GARFTase (Homo sapiens, UniProt P22102).
T2 construct: In the in situ GARFTase assay, incorporation of ^14C-glycine into formyl glycinamide ribonucleotide was measured; endogenous in cells
T2 sequence (P22102 1-1010): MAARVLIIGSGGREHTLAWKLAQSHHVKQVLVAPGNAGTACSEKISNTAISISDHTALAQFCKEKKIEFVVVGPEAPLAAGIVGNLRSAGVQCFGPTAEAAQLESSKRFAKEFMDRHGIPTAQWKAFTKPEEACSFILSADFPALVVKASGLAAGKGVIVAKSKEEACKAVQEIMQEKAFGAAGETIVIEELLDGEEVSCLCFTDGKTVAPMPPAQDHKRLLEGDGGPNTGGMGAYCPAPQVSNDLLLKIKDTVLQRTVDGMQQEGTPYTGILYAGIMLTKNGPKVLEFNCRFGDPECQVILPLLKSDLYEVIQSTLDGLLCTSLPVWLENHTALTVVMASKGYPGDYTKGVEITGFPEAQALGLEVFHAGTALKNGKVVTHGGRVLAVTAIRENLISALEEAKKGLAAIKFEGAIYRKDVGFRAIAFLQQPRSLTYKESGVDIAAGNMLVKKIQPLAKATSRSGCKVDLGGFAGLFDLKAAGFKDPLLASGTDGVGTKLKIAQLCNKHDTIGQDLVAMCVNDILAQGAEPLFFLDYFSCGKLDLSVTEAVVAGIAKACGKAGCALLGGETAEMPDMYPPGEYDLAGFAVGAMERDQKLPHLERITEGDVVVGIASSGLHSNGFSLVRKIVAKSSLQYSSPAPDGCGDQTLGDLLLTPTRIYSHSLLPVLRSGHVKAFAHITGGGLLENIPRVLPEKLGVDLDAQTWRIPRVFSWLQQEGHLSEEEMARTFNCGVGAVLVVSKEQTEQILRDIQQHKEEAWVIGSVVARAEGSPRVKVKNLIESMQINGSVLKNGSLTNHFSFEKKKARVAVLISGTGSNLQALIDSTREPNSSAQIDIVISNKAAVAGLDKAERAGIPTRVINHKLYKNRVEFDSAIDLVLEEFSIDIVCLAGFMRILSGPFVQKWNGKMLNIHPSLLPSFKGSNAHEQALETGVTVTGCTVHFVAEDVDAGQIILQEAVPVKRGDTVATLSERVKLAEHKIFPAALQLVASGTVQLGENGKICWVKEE
The data set is described as follows: In situ GARFTase assay (14C-glycine incorporation into formyl glycinamide ribonucleotide). The data set is classed as cell-based. To be noted: mean IC50, SEM in parentheses.

Data set [7] has as its target FRα (Homo sapiens, UniProt P15328). The data set is described as follows: FRα binding affinity relative to folic acid. As to conditions: folic acid set to 1.
Data set [8] has as its target thymidylate synthase (TS) (Homo sapiens, UniProt P04818). As to conditions: cited from earlier work.
For data set [9] the following is noted: mouse, in vivo; cited from earlier work.
For data set [10], the system named is R2/VC cells (vector control R2 CHO). The data set is described as follows: Growth inhibition of vector control R2 CHO cells (Cell TiterBlue, 96 h). Type of data set: cell-based, Chinese hamster. To be noted: Cricetulus griseus, read-out: Growth inhibition 50% inhibitory concentration, R2/VC.
For data set [11] the following is noted: in vivo; cited from earlier work.
Setting [12] is: Homo sapiens, RPMI1640/10% dialyzed fetal bovine serum, without folic acid, read-out: Growth inhibition (IC50, nM) hRFC/FRα KB.
[13] abbreviates: folate-free RPMI1640/10% dialyzed FBS, 25 nM leucovorin.

Read-outs that look alike come from different tables or passages of the source.

Sequence of thymidylate synthase (TS) (P04818 whole entry, species assumed): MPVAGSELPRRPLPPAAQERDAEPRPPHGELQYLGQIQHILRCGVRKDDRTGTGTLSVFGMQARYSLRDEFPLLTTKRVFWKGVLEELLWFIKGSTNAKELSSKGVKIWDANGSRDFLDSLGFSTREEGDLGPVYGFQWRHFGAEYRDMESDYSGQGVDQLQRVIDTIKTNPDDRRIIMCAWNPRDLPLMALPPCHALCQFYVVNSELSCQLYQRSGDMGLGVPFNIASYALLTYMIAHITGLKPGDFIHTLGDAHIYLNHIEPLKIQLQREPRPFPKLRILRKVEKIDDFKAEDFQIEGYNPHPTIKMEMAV
Sequence of FRα (P15328 25-234): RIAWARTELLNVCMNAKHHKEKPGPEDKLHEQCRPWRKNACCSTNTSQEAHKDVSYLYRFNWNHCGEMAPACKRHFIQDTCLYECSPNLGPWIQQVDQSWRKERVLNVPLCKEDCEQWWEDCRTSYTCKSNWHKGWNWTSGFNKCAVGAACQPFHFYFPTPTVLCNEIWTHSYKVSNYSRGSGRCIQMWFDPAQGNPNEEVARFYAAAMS

For `Nc1nc2[nH]c(CCCCCc3ccc(C(=O)N[C@@H](CCC(=O)O)C(=O)O)s3)cc2c(=O)[nH]1` [AAG154360, (S)-2-({5-[5-(2-amino-4-oxo-4,7-dihydro-3H-pyrrolo[2,3-d]pyrimidin-6-yl)-pentyl]-thiophene-2-carbonyl}-amino)-pentanedioic acid], the IC50 in [1] (Cricetulus griseus, PC43-10, RPMI1640/10% dialyzed fetal bovine serum, mean of 2-3 experiments, read-out: Growth inhibition (IC50, nM) hRFC PC43-10) was over 1000 nM; in data set [2], over 1000 nM; in [3] (RPMI1640/10% dialyzed fetal bovine serum, without folic acid, read-out: Growth inhibition (IC50, nM) hFRα RT16), 2 nM; in [3] (in the presence of an elevated concentration of folic acid, read-out: Growth inhibition (IC50, nM) hFRα RT16 (+FA)), over 1000 nM; in data set [4] (setting [12]), 3.4 nM; in [4] (Homo sapiens, co-treatment with folic acid (200 nM), read-out: Growth inhibition (IC50, nM) hRFC/FRα KB (+FA)) it was over 1000 nM. Moreover, the IC50 was 3310 nM in data set [5] and 7.65 nM in [6]. Besides, in [1] (only RFC), the “Growth inhibition of hRFC-expressing PC43-10 cells (in words)” value is “Neither AAG154353 and AAG154360 showed appreciable growth inhibition”. Also, the “Growth inhibition / FR-targeted activity toward RT16 cells (in words)” value in data set [3] (cells expressing FRα) was “high level of FR-targeted activity”. Besides, in [4] (folic acid 200 nM), the “Effect of folic acid co-treatment on growth inhibition of KB cells” value was “completely reversed growth inhibition”. Moreover, the “FRα binding affinity compared to folic acid” value in data set [7] is “very high binding affinities”.

In the case of `Nc1nc2[nH]c(CCC#Cc3ccc(C(=O)N[C@@H](CCC(=O)O)C(=O)O)s3)cc2c(=O)[nH]1` [AAG154468, (S)-2-({5-[4-(2-amino-4-oxo-4,7-dihydro-3H-pyrrolo[2,3-d]pyrimidin-6-yl)-but-1-ynyl]-thiophene-2-carbonyl}-amino)-pentanedioic acid], the melting point (in general, the temperature of the solid-liquid transition) lay within 196 to 197 °C. The IC50 in data set [4] (setting [12]) came to 122 nM.

In the case of `Nc1nc2[nH]c(CCCCc3ccc(C(=O)N[C@@H](CCC(=O)O)C(=O)O)o3)cc2c(=O)[nH]1` [AAG154489, (S)-2-({5-[4-(2-amino-4-oxo-4,7-dihydro-3H-pyrrolo[2,3-d]pyrimidin-6-yl)-butyl]-furan-2-carbonyl}-amino)-pentanedioic acid], the IC50 in data set [4] (setting [12]) worked out at 0.3 nM.

For the compound `C#CCN(c1ccc(C(=O)N[C@@H](CCC(=O)N[C@H](CCC(=O)O)C(=O)O)C(=O)O)cc1)[C@H]1CCc2cc3nc(C)[nH]c(=O)c3cc21` [BGC638], the “Inhibition of thymidylate synthase (TS) within cells” value in [8] was “potently inhibit”.

With `C#CCN(c1ccc(C(=O)N[C@@H](CCC(=O)N[C@H](CCC(=O)O)C(=O)O)C(=O)O)cc1)[C@H]1CCc2cc3nc(CO)[nH]c(=O)c3cc21` [BGC945], the “Inhibition of thymidylate synthase (TS) within cells” value in data set [8] is “potently inhibit”. Also, the “Toxicity to normal tissues in mice” value in [9] is recorded as “no toxicity to normal tissues”.

As to `Cc1nc2ccc3ccc(CNc4ccc5c(c4)CN([C@@H](CCC(=O)O)C(=O)O)C5=O)cc3c2c(=O)[nH]1` [GW1843U89, reference compound], the IC50 was 5.8 nM in data set [4] (RPMI1640/10% dialyzed fetal bovine serum, without folic acid, read-out: Growth inhibition (IC50, nM) hRFC/FRα KB) and 32 nM in [4] (co-treatment with folic acid (200 nM), read-out: Growth inhibition (IC50, nM) hRFC/FRα KB (+FA)).

In the case of `Nc1nc2c(c(=O)[nH]1)C[C@@H](CCc1ccc(C(=O)N[C@@H](CCC(=O)O)C(=O)O)cc1)CN2` [Lometrexol, lometrexol, reference compound], the values for the IC50 in data set [5] and in data set [10] were 780 nM and over 1000 nM, respectively. The “Toxicity in phase 1 studies” value in data set [11] is “severe myelosupression”.

`CN(Cc1cnc2nc(N)nc(N)c2n1)c1ccc(C(=O)N[C@@H](CCC(=O)O)C(=O)O)cc1` [Methotrexate, methotrexate]: the IC50 in data set [10] (setting [13]) was over 1000 nM.

Regarding `Nc1nc2[nH]cc(CCc3ccc(C(=O)N[C@@H](CCC(=O)O)C(=O)O)cc3)c2c(=O)[nH]1` [Pemetrexed, pemetrexed, reference compound], in data set [10], the IC50 is 150 ± 22.5 nM.

In the case of `Cc1nc2ccc(CN(C)c3ccc(C(=O)N[C@@H](CCC(=O)O)C(=O)O)s3)cc2c(=O)[nH]1` [Raltitrexed, raltitrexed, reference compound], the IC50 in data set [10] (setting [13]) turned out to be 604 ± 53.6 nM.
